Reference: PMC7356692, “Structural Basis of Specific Glucoimidazole and Mannoimidazole Binding by Os3BGlu7” (Biomolecules, 2020)

Biological target: T1, Os3BGlu7 (Oryza sativa, UniProt Q75I93)
T1 construct: gene BGLU7; recombinant from E. coli Origami (DE3); IMAC, fusion tag removed with enterokinase; mature enzyme; two molecules per asymmetric unit
Experiment: X-ray crystallography, […] Å
Type: binding
Settings: crystal soaked in 10 mM mannoimidazole preparation (GIm as contaminant or isomerization product); -1 subsite; pH 6.7

T1 sequence (Q75I93 29-504): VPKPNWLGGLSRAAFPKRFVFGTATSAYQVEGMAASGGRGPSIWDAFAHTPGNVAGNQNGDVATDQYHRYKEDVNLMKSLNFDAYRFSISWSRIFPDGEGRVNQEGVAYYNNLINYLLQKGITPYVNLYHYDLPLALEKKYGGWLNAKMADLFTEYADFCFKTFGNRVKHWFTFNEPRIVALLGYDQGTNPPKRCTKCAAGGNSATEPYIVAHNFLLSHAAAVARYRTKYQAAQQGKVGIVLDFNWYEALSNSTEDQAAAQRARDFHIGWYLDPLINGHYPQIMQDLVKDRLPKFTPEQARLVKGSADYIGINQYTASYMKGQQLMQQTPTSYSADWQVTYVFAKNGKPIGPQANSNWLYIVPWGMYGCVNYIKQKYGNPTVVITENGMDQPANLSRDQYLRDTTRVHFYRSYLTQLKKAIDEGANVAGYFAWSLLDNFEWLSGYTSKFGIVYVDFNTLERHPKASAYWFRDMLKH

Question: Which “X-ray crystallography, 2.3 Å” value does the source give for OC[C@@H]1[C@@H](O)[C@H](O)[C@@H](O)c2nccn21 [glucoimidazole] here?
Answer: Its value is “electron densities of ligand in the active sites of both protein molecules in the asymmetric unit”.
